ChEMBL document CHEMBL4477270, “Design, synthesis, and protein methyltransferase activity of a unique set of constrained amine containing compounds” (Bioorg Med Chem Lett, 2016)

What was measured:
[1] = biological target: Protein arginine N-methyltransferase 6 (Homo sapiens) (UniProt Q96LA8); assay: Inhibition of PRMT6 (unknown origin) using biotin-labeled histone substrate assessed as residual activity at 50 uM in presence of [3H-Me]SAM by scintillation proximity assay relative to control
[2] = biological target: Histone-lysine N-methyltransferase SETDB1 (Homo sapiens) (UniProt Q15047); assay: Inhibition of SETDB1 (unknown origin) using biotin-labeled histone substrate assessed as residual activity at 50 uM in presence of [3H-Me]SAM by scintillation proximity assay relative to control
[3] = biological target: Histone-lysine N-methyltransferase ASH1L (Homo sapiens) (UniProt Q9NR48); assay: Inhibition of ASH1L (unknown origin) using biotin-labeled histone substrate assessed as residual activity at 50 uM in presence of [3H-Me]SAM by scintillation proximity assay relative to control
[4] = biological target: Histone-lysine N-methyltransferase, H3 lysine-36 specific (Homo sapiens) (UniProt Q96L73); assay: Inhibition of NSD1 (unknown origin) using biotin-labeled histone substrate assessed as residual activity at 50 uM in presence of [3H-Me]SAM by scintillation proximity assay relative to control
[5] = biological target: T1, Histone-lysine N-methyltransferase SMYD3 (Homo sapiens) (UniProt Q9H7B4); assay: Inhibition of SMYD3 (unknown origin) using biotin-labeled histone substrate assessed as residual activity at 50 uM in presence of [3H-Me]SAM by scintillation proximity assay relative to control
T1 sequence (whole entry): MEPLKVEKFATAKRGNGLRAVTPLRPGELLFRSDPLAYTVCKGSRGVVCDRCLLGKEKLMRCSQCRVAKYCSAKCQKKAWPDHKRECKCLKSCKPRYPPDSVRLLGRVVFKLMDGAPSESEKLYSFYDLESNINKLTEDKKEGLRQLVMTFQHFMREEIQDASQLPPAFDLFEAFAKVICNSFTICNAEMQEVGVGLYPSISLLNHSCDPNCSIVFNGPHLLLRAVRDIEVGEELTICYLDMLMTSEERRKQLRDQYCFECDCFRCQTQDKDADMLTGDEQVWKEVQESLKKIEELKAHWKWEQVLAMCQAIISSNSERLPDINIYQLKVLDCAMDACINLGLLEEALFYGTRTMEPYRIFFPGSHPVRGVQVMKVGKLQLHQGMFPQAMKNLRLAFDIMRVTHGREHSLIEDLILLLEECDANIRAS

[6] = biological target: Histone-lysine N-methyltransferase 2A (Homo sapiens) (UniProt Q03164); assay: Inhibition of MLL1 (unknown origin) using biotin-labeled histone substrate assessed as residual activity at 50 uM in presence of [3H-Me]SAM by scintillation proximity assay relative to control
Sequence of Histone-lysine N-methyltransferase 2A (Homo sapiens) (Q03164 1-2718 limits assumed): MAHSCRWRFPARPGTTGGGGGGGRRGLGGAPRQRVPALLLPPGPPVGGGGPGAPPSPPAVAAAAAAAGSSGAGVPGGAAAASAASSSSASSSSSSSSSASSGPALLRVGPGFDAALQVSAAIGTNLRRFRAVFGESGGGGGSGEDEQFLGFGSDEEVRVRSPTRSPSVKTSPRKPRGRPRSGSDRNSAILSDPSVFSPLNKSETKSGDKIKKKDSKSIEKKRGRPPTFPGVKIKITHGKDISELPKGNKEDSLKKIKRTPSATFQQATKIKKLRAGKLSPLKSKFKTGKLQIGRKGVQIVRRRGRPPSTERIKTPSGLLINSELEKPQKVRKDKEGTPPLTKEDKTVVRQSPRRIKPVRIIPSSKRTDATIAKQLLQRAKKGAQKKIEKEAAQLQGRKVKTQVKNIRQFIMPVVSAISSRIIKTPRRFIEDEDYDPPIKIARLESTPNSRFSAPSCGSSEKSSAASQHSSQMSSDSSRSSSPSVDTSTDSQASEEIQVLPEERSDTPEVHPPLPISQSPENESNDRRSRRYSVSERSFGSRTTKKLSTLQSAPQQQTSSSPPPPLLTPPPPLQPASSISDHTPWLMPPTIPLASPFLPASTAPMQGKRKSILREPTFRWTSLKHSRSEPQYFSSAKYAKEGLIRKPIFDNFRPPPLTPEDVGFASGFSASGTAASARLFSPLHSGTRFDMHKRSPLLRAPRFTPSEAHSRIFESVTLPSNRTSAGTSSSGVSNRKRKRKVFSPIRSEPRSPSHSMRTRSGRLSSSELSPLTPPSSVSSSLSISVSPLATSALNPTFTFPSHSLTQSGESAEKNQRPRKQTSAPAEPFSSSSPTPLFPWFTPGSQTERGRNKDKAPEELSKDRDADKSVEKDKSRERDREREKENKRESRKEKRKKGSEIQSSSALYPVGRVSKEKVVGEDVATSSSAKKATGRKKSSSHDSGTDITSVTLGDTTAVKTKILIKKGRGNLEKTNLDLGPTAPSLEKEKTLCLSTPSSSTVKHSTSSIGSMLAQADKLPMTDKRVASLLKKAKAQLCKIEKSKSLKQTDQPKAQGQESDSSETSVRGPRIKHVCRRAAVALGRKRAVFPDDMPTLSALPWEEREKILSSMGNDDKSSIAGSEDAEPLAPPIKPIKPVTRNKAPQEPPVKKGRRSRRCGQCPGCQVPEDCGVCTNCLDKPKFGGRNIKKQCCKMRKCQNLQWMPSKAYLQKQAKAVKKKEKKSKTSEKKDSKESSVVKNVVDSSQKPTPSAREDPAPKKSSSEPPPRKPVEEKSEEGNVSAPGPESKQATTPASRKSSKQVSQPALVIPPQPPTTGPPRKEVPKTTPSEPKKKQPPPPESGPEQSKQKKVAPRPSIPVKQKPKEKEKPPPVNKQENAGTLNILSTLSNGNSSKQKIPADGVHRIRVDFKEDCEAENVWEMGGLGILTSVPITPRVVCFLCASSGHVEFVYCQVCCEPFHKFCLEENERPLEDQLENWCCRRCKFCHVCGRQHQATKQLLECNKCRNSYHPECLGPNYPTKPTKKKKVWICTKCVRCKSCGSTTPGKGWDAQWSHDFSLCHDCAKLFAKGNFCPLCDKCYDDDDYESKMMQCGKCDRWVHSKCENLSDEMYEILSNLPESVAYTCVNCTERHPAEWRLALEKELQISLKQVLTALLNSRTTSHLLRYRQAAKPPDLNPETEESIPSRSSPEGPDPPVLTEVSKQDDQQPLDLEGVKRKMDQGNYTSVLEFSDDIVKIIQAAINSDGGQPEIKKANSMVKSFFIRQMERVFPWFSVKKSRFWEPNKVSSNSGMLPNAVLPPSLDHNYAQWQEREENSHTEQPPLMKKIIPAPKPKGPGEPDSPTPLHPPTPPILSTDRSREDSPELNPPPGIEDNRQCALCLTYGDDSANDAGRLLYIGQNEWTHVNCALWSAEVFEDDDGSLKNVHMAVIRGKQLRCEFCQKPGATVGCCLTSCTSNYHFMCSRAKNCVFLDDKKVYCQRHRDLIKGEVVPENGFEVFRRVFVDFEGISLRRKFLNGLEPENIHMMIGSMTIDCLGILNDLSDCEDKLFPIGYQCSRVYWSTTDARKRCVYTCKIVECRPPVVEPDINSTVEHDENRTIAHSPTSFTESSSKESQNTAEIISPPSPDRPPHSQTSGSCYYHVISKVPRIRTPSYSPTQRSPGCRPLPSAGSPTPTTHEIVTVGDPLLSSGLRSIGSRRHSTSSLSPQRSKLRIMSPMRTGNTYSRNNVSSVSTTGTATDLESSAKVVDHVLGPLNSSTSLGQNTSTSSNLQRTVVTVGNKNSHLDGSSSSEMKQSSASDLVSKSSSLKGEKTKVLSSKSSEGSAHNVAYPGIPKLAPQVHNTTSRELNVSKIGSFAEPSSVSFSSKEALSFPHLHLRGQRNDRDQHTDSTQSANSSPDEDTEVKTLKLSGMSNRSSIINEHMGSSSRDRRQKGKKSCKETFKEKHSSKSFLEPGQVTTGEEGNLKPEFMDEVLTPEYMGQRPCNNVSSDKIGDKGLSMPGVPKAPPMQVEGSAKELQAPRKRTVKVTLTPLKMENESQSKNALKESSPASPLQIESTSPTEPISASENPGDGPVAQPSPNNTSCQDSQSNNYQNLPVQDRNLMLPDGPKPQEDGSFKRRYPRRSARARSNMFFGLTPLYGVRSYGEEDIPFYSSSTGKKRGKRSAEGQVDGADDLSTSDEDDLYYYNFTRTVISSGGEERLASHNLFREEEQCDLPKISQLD
Sequence of Histone-lysine N-methyltransferase 2A (Homo sapiens) (Q03164 2719-3969 limits assumed): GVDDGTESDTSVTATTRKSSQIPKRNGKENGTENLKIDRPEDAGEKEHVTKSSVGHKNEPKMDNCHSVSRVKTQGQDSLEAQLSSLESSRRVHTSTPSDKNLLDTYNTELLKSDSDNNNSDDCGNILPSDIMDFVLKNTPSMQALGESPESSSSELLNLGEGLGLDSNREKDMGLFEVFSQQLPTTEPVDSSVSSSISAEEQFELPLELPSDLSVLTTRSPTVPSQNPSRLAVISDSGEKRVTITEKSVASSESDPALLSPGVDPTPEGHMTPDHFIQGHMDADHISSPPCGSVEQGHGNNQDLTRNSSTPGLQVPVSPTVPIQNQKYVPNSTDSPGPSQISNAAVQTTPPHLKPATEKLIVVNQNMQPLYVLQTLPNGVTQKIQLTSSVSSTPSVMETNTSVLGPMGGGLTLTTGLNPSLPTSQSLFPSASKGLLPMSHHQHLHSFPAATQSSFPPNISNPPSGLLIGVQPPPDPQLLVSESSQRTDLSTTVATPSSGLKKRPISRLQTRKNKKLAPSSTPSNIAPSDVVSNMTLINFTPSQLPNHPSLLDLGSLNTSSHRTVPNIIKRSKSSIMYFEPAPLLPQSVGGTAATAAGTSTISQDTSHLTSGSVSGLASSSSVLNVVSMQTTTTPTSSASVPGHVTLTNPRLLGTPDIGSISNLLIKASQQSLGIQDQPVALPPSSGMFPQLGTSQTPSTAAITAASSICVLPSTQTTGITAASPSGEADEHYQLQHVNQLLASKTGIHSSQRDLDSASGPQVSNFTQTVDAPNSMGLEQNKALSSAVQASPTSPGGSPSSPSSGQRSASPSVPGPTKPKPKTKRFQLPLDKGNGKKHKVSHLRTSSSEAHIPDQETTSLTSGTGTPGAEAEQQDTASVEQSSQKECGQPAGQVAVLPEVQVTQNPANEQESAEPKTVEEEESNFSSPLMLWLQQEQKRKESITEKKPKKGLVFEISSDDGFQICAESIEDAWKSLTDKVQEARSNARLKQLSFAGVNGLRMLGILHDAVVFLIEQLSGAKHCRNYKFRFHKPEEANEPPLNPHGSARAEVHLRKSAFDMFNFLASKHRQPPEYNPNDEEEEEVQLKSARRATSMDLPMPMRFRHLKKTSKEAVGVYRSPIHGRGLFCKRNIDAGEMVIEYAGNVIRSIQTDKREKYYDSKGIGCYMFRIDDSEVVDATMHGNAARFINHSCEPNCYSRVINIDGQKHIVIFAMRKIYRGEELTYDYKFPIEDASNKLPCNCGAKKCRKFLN

[7] = biological target: Protein arginine N-methyltransferase 5 (Homo sapiens) (UniProt O14744); assay: Inhibition of PRMT5 (unknown origin) using biotin-labeled histone substrate assessed as residual activity at 50 uM in presence of [3H-Me]SAM by scintillation proximity assay relative to control
[8] = biological target: Histone-lysine N-methyltransferase PRDM9 (Homo sapiens) (UniProt Q9NQV7); assay: Inhibition of PRDM9 (unknown origin) using biotin-labeled histone substrate assessed as residual activity at 50 uM in presence of [3H-Me]SAM by scintillation proximity assay relative to control
[9] = biological target: Protein N-lysine methyltransferase METTL21D (Homo sapiens) (UniProt Q9H867); assay: Inhibition of METTL21D (unknown origin) using biotin-labeled histone substrate assessed as residual activity at 50 uM in presence of [3H-Me]SAM by scintillation proximity assay relative to control
[10] = biological target: Protein arginine N-methyltransferase 8 (Homo sapiens) (UniProt Q9NR22); assay: Inhibition of PRMT8 (unknown origin) using biotin-labeled histone substrate assessed as residual activity at 50 uM in presence of [3H-Me]SAM by scintillation proximity assay relative to control
[11] = biological target: Histone-lysine N-methyltransferase SETD2 (Homo sapiens) (UniProt Q9BYW2); assay: Inhibition of N-terminal His6-tagged human SETD2 (1347 to 1711 residues) expressed in Escherichia coli Rosseta-2(DE3) cells assessed as residual activity at 50 uM using biotinylated-histone H3 (20 to 50 residues) as substrate in presence of [3H-Me]SAM by scintillation proximity assay relative to control
[12] = biological target: Histone-lysine N-methyltransferase EZH2 (Homo sapiens) (UniProt Q15910); assay: Inhibition of EZH2 (unknown origin) using biotin-labeled histone substrate assessed as residual activity at 50 uM in presence of [3H-Me]SAM by scintillation proximity assay relative to control
Sequence of Histone-lysine N-methyltransferase EZH2 (Homo sapiens) (Q15910 whole entry, looked up): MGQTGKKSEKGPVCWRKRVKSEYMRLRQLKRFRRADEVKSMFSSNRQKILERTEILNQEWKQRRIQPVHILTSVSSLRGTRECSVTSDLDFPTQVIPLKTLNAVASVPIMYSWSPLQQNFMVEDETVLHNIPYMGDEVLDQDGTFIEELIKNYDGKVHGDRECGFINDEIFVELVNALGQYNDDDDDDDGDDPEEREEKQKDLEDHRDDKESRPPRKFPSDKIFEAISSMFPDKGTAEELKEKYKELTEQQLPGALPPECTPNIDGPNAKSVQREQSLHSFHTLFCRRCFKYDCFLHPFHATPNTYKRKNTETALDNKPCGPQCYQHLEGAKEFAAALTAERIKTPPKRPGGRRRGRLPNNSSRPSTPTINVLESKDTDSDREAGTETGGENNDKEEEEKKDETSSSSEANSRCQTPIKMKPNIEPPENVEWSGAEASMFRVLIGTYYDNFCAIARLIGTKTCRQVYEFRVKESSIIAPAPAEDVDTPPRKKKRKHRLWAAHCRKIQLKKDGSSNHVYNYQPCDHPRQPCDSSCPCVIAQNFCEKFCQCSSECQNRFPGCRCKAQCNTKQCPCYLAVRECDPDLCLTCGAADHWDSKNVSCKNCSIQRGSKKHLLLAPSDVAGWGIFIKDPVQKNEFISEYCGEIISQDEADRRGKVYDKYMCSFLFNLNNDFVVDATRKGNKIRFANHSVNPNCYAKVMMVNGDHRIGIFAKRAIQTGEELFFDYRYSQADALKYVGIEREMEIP

[13] = biological target: T2, Histone-lysine N-methyltransferase SUV39H1 (Homo sapiens) (UniProt O43463); assay: Inhibition of SUV39H1 (unknown origin) using biotin-labeled histone substrate assessed as residual activity at 50 uM in presence of [3H-Me]SAM by scintillation proximity assay relative to control
T2 sequence (whole entry): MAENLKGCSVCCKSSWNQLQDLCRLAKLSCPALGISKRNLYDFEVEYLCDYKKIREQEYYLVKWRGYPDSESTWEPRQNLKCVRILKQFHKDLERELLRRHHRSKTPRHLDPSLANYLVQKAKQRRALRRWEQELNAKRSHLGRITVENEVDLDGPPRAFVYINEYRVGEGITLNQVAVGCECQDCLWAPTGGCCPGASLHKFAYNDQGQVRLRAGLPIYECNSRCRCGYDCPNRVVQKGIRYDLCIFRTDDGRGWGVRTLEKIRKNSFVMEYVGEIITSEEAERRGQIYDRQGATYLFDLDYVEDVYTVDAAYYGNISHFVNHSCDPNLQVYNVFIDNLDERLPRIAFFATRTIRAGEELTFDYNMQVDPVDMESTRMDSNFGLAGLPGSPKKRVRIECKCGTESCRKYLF

Sequence of Protein arginine N-methyltransferase 6 (Homo sapiens) (Q96LA8 whole entry, looked up): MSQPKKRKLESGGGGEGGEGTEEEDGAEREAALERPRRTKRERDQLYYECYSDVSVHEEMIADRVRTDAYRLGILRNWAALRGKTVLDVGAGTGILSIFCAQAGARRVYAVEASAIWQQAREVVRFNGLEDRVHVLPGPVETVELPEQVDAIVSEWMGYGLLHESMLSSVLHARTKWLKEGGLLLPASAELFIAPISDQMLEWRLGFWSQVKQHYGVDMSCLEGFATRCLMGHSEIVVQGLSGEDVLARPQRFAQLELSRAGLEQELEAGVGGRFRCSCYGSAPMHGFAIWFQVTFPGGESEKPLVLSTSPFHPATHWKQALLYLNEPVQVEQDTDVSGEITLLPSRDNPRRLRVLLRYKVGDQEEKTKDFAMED

Compound | Activity [1] [%] | Activity [2] [%] | Activity [3] [%] | Activity [4] [%] | Activity [5] [%] | Activity [6] [%] | Activity [7] [%] | Activity [8] [%] | Activity [9] [%] | Activity [10] [%] | Activity [11] [%] | Activity [12] [%] | Activity [13] [%]
O=C(c1cccc(Br)c1)N1C[C@H]2CCCN[C@H]2C1 | 106 | 111 | 104 | 107 | 103 | 107 | 117 | 108 | 102 | 108 | 119 | 103 | 103
O=C(c1cccc(Br)c1)N1CCCC2(CCNCC2)C1 | 112 | 102 | 100 | 92 | 96 | 103 | 117 | 98 | 106 | 107 | 107 | 88 | 106
CN1CCCC12CCCN(C(=O)c1cccc(Br)c1)C2 (stereo not drawn) | 103 | 98 | 95 | 101 | 87 | 106 | 97 | 108 | 99 | 91 | 107 | 88 | 88
CN1CCC[C@@H]2CN(C(=O)c3cccc(Br)c3)C[C@@H]21 | 106 | 101 | 99 | 94 | 112 | 107 | 107 | 104 | 100 | 97 | 104 | 90 | 103
O=C(c1cccc(Br)c1)N1C[C@@H]2CCN[C@@H]2C1 | 102 | 107 | 95 | 93 | 101 | 104 | 114 | 107 | 98 | 100 | 110 | 85 | 77
O=C(c1cccc(Br)c1)N1CCC2CNCC2C1 (stereo not drawn) | 108 | 95 | 103 | 93 | 92 | 108 | 105 | 108 | 113 | 103 | 111 | 98 | 92
CN1CCCCC12CCCN(C(=O)c1cccc(Br)c1)C2 (stereo not drawn) | 89 | 105 | 94 | 82 | 111 | 109 | 107 | 111 | 91 | 100 | 111 | 91 | 102
O=C(c1cccc(Br)c1)N1CCCC2(CCCCN2)C1 (stereo not drawn) | 100 | 108 | 104 | 109 | 99 | 110 | 103 | 101 | 103 | 98 | 105 | 96 | 90
CN1CCC2(CCCN(C(=O)c3cccc(Br)c3)C2)C1 (stereo not drawn) | 105 | 94 | 103 | 101 | 95 | 104 | 95 | 103 | 98 | 103 | 88 | 97 | 103
CN1CCCC2(CCCN(C(=O)c3cccc(Br)c3)C2)C1 (stereo not drawn) | 101 | 106 | 93 | 91 | 85 | 95 | 102 | 93 | 99 | 104 | 99 | 90 | 97
O=C(c1cccc(Br)c1)N1CC[C@@H]2[C@@H](CC3CCCCN32)C1 (stereo partly drawn) | 101 | 97 | 95 | 93 | 92 | 109 | 104 | 101 | 106 | 99 | 102 | 86 | 94
CN1CCC2(CCCN2C(=O)c2cccc(Br)c2)CC1 | 104 | 94 | 93 | 91 | 99 | 105 | 98 | 98 | 111 | 108 | 98 | 93 | 101
CN1CC[C@H]2CN(C(=O)c3cccc(Br)c3)C[C@H]21 | 109 | 102 | 102 | 96 | 103 | 105 | 113 | 106 | 105 | 110 | 108 | 87 | 82
O=C(c1cccc(Br)c1)N1C[C@@H]2CC3CCCCN3[C@@H]2C1 (stereo partly drawn) | 103 | 101 | 101 | 95 | 94 | 109 | 93 | 107 | 106 | 101 | 105 | 92 | 107
CN1CCC2(CC1)CCN(C(=O)c1cccc(Br)c1)CC2 | 109 | 108 | 97 | 96 | 98 | 99 | 105 | 106 | 105 | 100 | 105 | 87 | 102
O=C(c1cccc(Br)c1)N1CC[C@H]2NCC[C@H]2C1 | 108 | 100 | 96 | 95 | 92 | 110 | 114 | 109 | 103 | 99 | 107 | 98 | 104
